The values below come from patent US12240827B2, “Serotonin 5-HT2B inhibitory compounds” (Zoetis Services LLC, priority 2019, dated 2025).

For one test, the target named is T1, canine 5-HT2B receptor (Canis lupus familiaris, UniProt Q50DZ8).
T1 construct: expressed in transfected cells; host or cells: CHO-K1
As to the kind of experiment: Canine 5-HT2B (c5-HT2B) in-vitro assay, FLIPR calcium response. The test is classed as cell-based. As to conditions: CHO-K1 cells stably expressing canine 5-HT2B receptor; inhibition of EC80 serotonin calcium response. On the procedure:
CHO-K1 cells stably expressing the canine 5-HT2B receptor were seeded at 20,000 cells per well in 20 μl culture media (DMEM with GlutaMAX™ high glucose+5% dialyzed FBS+10 mM HEPES+1×MEM Non-Essential Amino Acids of a 384-well black plate with clear bottom for at least 18 hours at 37° C. and 5% CO2. The cell plate was loaded with 20 μl/well of the FLIPR® Calcium 5 Assay kit prepared in HBSS containing calcium and magnesium supplemented with 20 mM HEPES and 5 mM Probenecid at pH 7.4 and incubated at 37° C. and 5% CO2 for 30 minutes and then an additional 30 minutes at room temperature. The intracellular calcium response was measured using the FLIPR Tetra® instrument measuring the kinetic response of the Calcium 5 dye at an excitation wavelength of 470-495 nm and emission wavelength of 515-575 nm at room temperature. The cells were initially challenged with a 5× concentration of the antagonist (10 μl/well) after an initial baseline recording and the calcium response was recorded for almost 2 minutes. After the completion of the initial antagonist challenge, the cell plate was incubated at room temperature in the FLIPR Tetra® instrument for 10 minutes. Finally, a second kinetic assay was performed after the 10 minute incubation at room temperature to measure the inhibitory response of the EC80 concentration of serotonin (15 μl/well) after an initial baseline recording. The IC50 concentration was determined for each antagonist tested.

The target in another test is T2, hERG (Homo sapiens, UniProt Q12809).
T2 construct: stably transfected with full length hERG cDNA; expressed in transfected cells; host or cells: HEK293
Put plainly: hERG in-vitro assay, IonWorks Barracuda population patch clamp. It is filed as cell-based. As to conditions: hERG/HEK293 cells; hERG current block, 5 minutes exposure. Here is the method: Stock solutions of compounds of the invention and positive control (cisapride; 0.001-3 μM) were prepared in DMSO. Stock solutions were diluted in a HEPES-buffered physiological saline solution. Test and control solutions contained 0.3% DMSO. Human hERG/HEK293 renal epithelial cells stably transfected with full length hERG cDNA were cultured in Dulbecco's Modified Eagle Medium/Nutrient Mixture F-12 (D-MEM/F-12) supplemented with 10% fetal bovine serum, 100 U/mL penicillin G sodium, 100 μg/mL streptomycin sulfate and 500 μg/mL G418. Before testing, cells in culture dishes were rinsed with Hank's Balanced Salt Solution (HBSS) and detached with accutase. Immediately before use in the IonWorks Barracuda™ system, the cells were washed with buffered physiological saline solution (HB-PS) buffer to remove the accutase and re-suspended in 5 mL of HB-PS. The test article effects were evaluated using IonWorks Barracuda™ systems (Molecular Devices Corporation, Union City, CA). HEPES-buffered intracellular solution for whole cell recordings was loaded into the intracellular compartment of the Population Patch Clamp™ (PPC) planar electrode.
Extracellular buffer (HB-PS) was loaded into PPC planar electrode plate wells (11 μL/well). The cell suspension was pipetted into the wells of the PPC planar electrode (9 μL/well). After establishment of a whole-cell configuration (the perforated patch), membrane currents were recorded using patch clamp amplifier in the IonWorks Barracuda™ system. The current recordings were performed one (1) time before test article application to the cells (baseline) and one (1) time after application of the test article. Test article concentrations were applied to naïve cells. Each application consisted of addition of 20 μL of 2× concentrated test article solution to the total 40 μL of final volume of the extracellular well of the PPC plate. Duration of exposure to each compound concentration was five (5) minutes. hERG current was elicited using a pulse pattern with fixed amplitudes (the first conditioning pre-pulse to 10 mV for 60 second, the second conditioning pre-pulse: −90 mV for 20 ms; the test pulse: +40 mV for 100 ms) from a holding potential of 0 mV (‘zero holding’ procedure). hERG current was measured as a difference between the peak current at 1 ms and at the end of test step to +40 mV. Data acquisition and analyses were performed using the IonWorks Barracuda™ system operation software (version 2.0.2). The decrease in current amplitude after test article application was used to calculate the percent block relative to control. Results for each test article concentration (n≥1) were averaged; the mean and standard deviation values were calculated and used to generate dose-response curves.
A general note: hERG is a cardiac potassium channel; its block is linked to QT prolongation.

T2 sequence (Q12809 whole entry): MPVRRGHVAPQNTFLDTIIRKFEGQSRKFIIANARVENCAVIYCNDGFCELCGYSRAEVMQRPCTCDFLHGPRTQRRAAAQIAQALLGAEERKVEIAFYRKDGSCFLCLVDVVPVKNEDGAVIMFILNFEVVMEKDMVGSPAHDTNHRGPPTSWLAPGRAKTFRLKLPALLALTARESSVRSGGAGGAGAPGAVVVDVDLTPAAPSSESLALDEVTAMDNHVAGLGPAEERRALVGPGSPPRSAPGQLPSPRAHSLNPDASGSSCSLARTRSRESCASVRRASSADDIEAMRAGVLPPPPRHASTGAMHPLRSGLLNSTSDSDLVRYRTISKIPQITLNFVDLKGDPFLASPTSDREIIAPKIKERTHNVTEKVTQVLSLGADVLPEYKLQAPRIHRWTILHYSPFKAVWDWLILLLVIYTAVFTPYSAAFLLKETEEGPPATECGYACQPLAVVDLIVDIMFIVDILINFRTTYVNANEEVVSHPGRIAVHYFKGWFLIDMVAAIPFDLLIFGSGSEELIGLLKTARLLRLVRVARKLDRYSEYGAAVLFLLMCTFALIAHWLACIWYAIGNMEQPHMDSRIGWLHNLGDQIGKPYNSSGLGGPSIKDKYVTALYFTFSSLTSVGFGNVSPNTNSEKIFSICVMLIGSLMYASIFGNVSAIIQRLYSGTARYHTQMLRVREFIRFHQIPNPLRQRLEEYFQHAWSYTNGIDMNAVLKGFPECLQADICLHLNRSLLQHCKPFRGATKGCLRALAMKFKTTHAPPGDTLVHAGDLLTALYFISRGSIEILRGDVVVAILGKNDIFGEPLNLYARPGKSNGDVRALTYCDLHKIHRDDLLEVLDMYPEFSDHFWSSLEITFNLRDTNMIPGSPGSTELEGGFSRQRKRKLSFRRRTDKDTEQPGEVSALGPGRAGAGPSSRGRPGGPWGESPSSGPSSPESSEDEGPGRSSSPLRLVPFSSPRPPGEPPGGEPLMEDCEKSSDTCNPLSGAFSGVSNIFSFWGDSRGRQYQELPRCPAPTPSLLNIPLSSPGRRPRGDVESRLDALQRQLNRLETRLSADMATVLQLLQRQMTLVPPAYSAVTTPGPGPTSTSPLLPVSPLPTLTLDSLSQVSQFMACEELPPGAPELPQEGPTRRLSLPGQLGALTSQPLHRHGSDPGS
T1 sequence (Q50DZ8 1-434): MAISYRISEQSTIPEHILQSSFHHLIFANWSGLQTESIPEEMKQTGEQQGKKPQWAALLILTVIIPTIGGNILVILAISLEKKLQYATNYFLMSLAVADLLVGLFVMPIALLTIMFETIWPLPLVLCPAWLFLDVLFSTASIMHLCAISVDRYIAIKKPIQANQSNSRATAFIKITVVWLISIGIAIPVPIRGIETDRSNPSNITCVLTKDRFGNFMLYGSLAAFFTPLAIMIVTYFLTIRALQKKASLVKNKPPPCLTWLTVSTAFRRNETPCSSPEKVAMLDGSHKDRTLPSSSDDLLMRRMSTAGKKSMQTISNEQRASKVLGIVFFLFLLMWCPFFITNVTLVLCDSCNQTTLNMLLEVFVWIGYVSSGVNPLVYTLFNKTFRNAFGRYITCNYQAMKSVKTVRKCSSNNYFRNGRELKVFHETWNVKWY

A word on the IC50: it is the concentration that gives 50% inhibition. For the compound `O=C(c1ccc(-c2cccc(C(F)(F)F)c2)cc1)N1CCC(c2ncc[nH]2)CC1` [Example 19, (4-(1H-imidazol-2-yl)piperidin-1-yl)(3′-(trifluoromethyl)-[1,1′-biphenyl]-4-yl)methanone], the IC50 turned out to be 0.89 nM on canine 5-HT2B receptor and 1470 nM against hERG.

With `Cc1cnc(C2CCN(C(=O)c3ccc(-c4n[nH]c5ccccc45)cc3)CC2)[nH]1` [Example 6, (4-(1H-indazol-3-yl)phenyl)(4-(5-methyl-1H-imidazol-2-yl)piperidin-1-yl)methanone], the results for the concentration for half-maximal inhibition (IC50) at canine 5-HT2B receptor and against hERG were 0.65 nM and 35500 nM, respectively.

Take `CS(=O)(=O)c1cccc(-c2ccc(C(=O)N3CCC(c4ncc[nH]4)CC3)cc2)c1` [Example 2, (4-(1H-imidazol-2-yl)piperidin-1-yl)(3′-(methylsulfonyl)-[1,1′-biphenyl]-4-yl)methanone]: the results for the IC50 on canine 5-HT2B receptor and at hERG were 52.3 nM and 72300 nM, respectively.

Regarding `O=C(c1ccc(-c2ccc(C(F)F)cc2)cc1)N1CCC(c2ncc[nH]2)CC1` [Example 16, (4-(1H-imidazol-2-yl)piperidin-1-yl)(4′-(difluoromethyl)-[1,1′-biphenyl]-4-yl)methanone], the IC50 at canine 5-HT2B receptor was determined as 0.31 nM; at hERG, 2740 nM.

For the compound `O=C(c1ccc2c(-c3ccccc3)c[nH]c2c1)N1CCC(c2ncc[nH]2)CC1` [Example 32, (4-(1H-imidazol-2-yl)piperidin-1-yl)(3-phenyl-1H-indol-6-yl)methanone], the figures for the IC50 at canine 5-HT2B receptor and against hERG were 7.3 nM and 15200 nM, respectively.

As to `O=C(c1ccc(-c2ccc(C(F)(F)F)cc2)cc1)N1CCC(Nc2ncc[nH]2)CC1` [Example 7, (4-((1H-imidazol-2-yl)amino)piperidin-1-yl)(4′-(trifluoromethyl)-[1,1′-biphenyl]-4-yl)methanone], the IC50 at canine 5-HT2B receptor worked out at 30.2 nM; against hERG it was 2500 nM.

Regarding `O=C(c1ccc2c(-c3cccc4[nH]ccc34)c[nH]c2c1)N1CCC(c2ncc[nH]2)CC1` [Example 28, (4-(1H-imidazol-2-yl)piperidin-1-yl)(1H,1′H-[3,4′-biindol]-6-yl)methanone], the IC50 at canine 5-HT2B receptor was 1.2 nM; on hERG it was above 30000 nM.

In the case of `O=C(c1ccc(-c2ccccc2F)cc1)N1CCC(c2ncc[nH]2)CC1` [CA-7, (4-(1H-imidazol-2-yl)piperidin-1-yl)(2′-fluoro-[1,1′-biphenyl]-4-yl)methanone, reference compound], the IC50 was 0.09 nM at canine 5-HT2B receptor and 1100 nM at hERG.

Turning to `O=C(c1ccc(Oc2ccccc2)cc1)N1CCC(c2ncc[nH]2)CC1` [Example 8, (4-(1H-imidazol-2-yl)piperidin-1-yl)(4-phenoxyphenyl)methanone], the IC50 at canine 5-HT2B receptor was determined as 0.64 nM; against hERG, 3140 nM.

Regarding `O=C(c1ccc(-c2ccccc2)cc1)N1CCC(c2ncc[nH]2)CC1` [CA-3, (4-(1H-imidazol-2-yl)piperidin-1-yl)([1,1′-biphenyl]-4-yl)methanone, reference compound], the IC50 came out at 0.64 nM on canine 5-HT2B receptor and 611 nM against hERG.

With `N#Cc1ccc(-c2ccc(C(=O)N3CCC(c4ncc[nH]4)CC3)cc2)cc1` [CA-5, 4′-(4-(1H-imidazol-2-yl)piperidine-1-carbonyl)-[1,1′-biphenyl]-4-carbonitrile, reference compound], the figures for the half-inhibitory concentration (IC50) at canine 5-HT2B receptor and against hERG were 453 nM and 54 nM, respectively.

With `Cc1cnc(C2CCN(C(=O)c3ccc(-c4c[nH]c5ccccc45)cc3)CC2)[nH]1` [Example 5, (4-(1H-indol-3-yl)phenyl)(4-(5-methyl-1H-imidazol-2-yl)piperidin-1-yl)methanone], the IC50 at canine 5-HT2B receptor stood at 0.33 nM; against hERG it was 6630 nM.

For `O=C(c1ccc(-n2ccc3ccccc32)cc1)N1CCC(c2ncc[nH]2)CC1` [Example 18, (4-(1H-imidazol-2-yl)piperidin-1-yl)(4-(1H-indol-1-yl)phenyl)methanone], the figures for the IC50 at canine 5-HT2B receptor and on hERG were 0.01 nM and 3400 nM, respectively.

For the compound `O=C(c1ccc(-c2ccccc2)nc1)N1CCC(c2ncc[nH]2)CC1` [Example 11, (4-(1H-imidazol-2-yl)piperidin-1-yl)(6-phenylpyridin-3-yl)methanone], the IC50 worked out at 4.5 nM at canine 5-HT2B receptor and 3280 nM on hERG.

For `Cc1c[nH]c(C2CCN(C(=O)c3ccc(-c4ccc(F)cc4)cc3)CC2)n1` [CA-6, (4′-fluoro-[1,1′-biphenyl]-4-yl)(4-(4-methyl-1H-imidazol-2-yl)piperidin-1-yl)methanone, reference compound], the IC50 was 7.3 nM at canine 5-HT2B receptor and below 30 nM against hERG.

`O=C(c1ccc2c(-c3c[nH]c4ccccc34)c[nH]c2c1)N1CCC(c2ncc[nH]2)CC1` [Example 29, [4-(1H-imidazol-2-yl)-1-piperidyl]-[3-(1H-indol-3-yl)-1H-indol-6-yl]methanone]: the IC50 on canine 5-HT2B receptor is 1.4 nM; against hERG it was 27100 nM.

Turning to `Cc1cnc(C2CCN(C(=O)c3ccc(-c4ccc5cc[nH]c5c4)cc3)CC2)[nH]1` [Example 27, (4-(1H-indol-6-yl)phenyl)(4-(5-methyl-1H-imidazol-2-yl)piperidin-1-yl)methanone], the IC50 on canine 5-HT2B receptor came out at 1.1 nM; against hERG, 9280 nM.

As to `O=C(c1ccc2c(c1)oc1ccccc12)N1CCC(c2ncc[nH]2)CC1` [Example 15, (4-(1H-imidazol-2-yl)piperidin-1-yl)(dibenzo[b,d]furan-3-yl)methanone], the IC50 at canine 5-HT2B receptor was 0.65 nM; at hERG, 2010 nM.

As for `O=C(c1ccc(-c2ccc(F)cc2)cc1)N1CCC(c2ncc[nH]2)CC1` [CA-4, (4-(1H-imidazol-2-yl)piperidin-1-yl)(4′-fluoro-[1,1′-biphenyl]-4-yl)methanone, reference compound], the IC50 was 0.08 nM on canine 5-HT2B receptor and below 30 nM against hERG.

Consider `O=C(c1ccc(-c2c[nH]c3ccccc23)cc1)N1CCC(c2ncc[nH]2)CC1` [Example 23, (4-(1H-imidazol-2-yl)piperidin-1-yl)(4-(1H-indol-3-yl)phenyl)methanone], for which the values for the IC50 at canine 5-HT2B receptor and against hERG were 0.02 nM and 24800 nM, respectively.

As to `O=C(c1ccc(-c2n[nH]c3ccccc23)cc1)N1CCC(c2ncc[nH]2)CC1` [Example 24, (4-(1H-imidazol-2-yl)piperidin-1-yl)(4-(1H-indazol-3-yl)phenyl)methanone], the IC50 is 0.33 nM on canine 5-HT2B receptor and 33600 nM on hERG.

Regarding `O=C(c1ccc(-c2ccc3c(c2)OCO3)cc1)N1CCC(c2ncc[nH]2)CC1` [Example 13, (4-(1H-imidazol-2-yl)piperidin-1-yl)(4-(benzo[d][1,3]dioxol-5-yl)phenyl)methanone], the IC50 is 1.4 nM at canine 5-HT2B receptor and 1730 nM on hERG.

`O=C(c1ccc(Nc2ccccc2)cc1)N1CCC(c2ncc[nH]2)CC1` [Example 9, (4-(1H-imidazol-2-yl)piperidin-1-yl)(4-(phenylamino)phenyl)methanone]: the IC50 at canine 5-HT2B receptor is 0.42 nM; against hERG, 3850 nM.

Take `O=C(c1ccc(-c2ccc(C(F)(F)F)cc2)cc1)N1CCC(c2ncc[nH]2)CC1` [Example 3, (4-(1H-imidazol-2-yl)piperidin-1-yl)(4′-(trifluoromethyl)-[1,1′-biphenyl]-4-yl)methanone]: the IC50 on canine 5-HT2B receptor is 5.1 nM; against hERG, 3480 nM.

In the case of `Cc1c[nH]c(C2CCN(C(=O)c3ccc(-c4c[nH]c5ccc(F)cc45)cc3)CC2)n1` [Example 34, (4-(5-fluoro-1H-indol-3-yl)phenyl)(4-(4-methyl-1H-imidazol-2-yl)piperidin-1-yl)methanone], the IC50 was 21 nM at canine 5-HT2B receptor and 13900 nM at hERG.
